Measured values as given in US8889662B2, “Method to alter sex ratios in avian offspring” (University of Georgia Research Foundation, Inc., priority 2009, dated 2014).

Tested on: zebra finch (Taeniopygia guttata)
Assay: Example 2: primary sex ratio after hormone injection five hours before ovulation, zebra finches
Format: in vivo
Description: Zebra finch (Taeniopygia guttata) pairs obtained from a breeding colony maintained at The University of Georgia were housed in individual cages and provided feed and water ad libidumn. Birds were kept under a 14 hour (h) light (L):10 h dark (D) light schedule. Egg-laying was monitored daily and eggs marked to record sequence order. Females were injected intraperitoneally after the first or second egg of the clutch was laid with one of three treatments: 20 μg of CORT dissolved in 50 μl peanut oil and 10% ethanol (CORT), 20 μg of progesterone dissolved in […] and 10% ethanol (P), or 50 μl of control peanut oil (C). A fourth set of females received no injection treatment (UN). […] The follicle ovulating 5 hours after injection, was laid approximately 36 hours after injection (FIG. 3). Ovulating follicles exposed to treatments were laid as the 3rd or 4th egg in the sequence (3rd egg if treatment was administered on the day the 1st egg was laid and the 4th egg in the sequence if treatment was administered on the day the 2nd egg was laid). Eggs were allowed to incubate in the nest for 8-12 days prior to collection to allow sufficient embryonic development for DNA extraction and molecular sexing analyses. Occasionally these treatments disrupted the oviposition immediately following the injection. Females that delayed oviposition after treatment were excluded from analysis because it was not possible to determine whether the egg collected the following day was from the ovulation event that occurred immediately following injection or from a delayed oviposition of the follicle ovulated the day prior to injection. Females that delayed oviposition were allowed to complete the clutch after which the treatment was repeated during the next clutch. […] Only 1/10 females treated with progesterone laid successfully. For this reason, progesterone treatments were eliminated from further analyses.
Molecular Sexing. Genomic DNA was extracted from embryonic tissue using a standard salt extraction method (Lambert et al., 2000, Journal of Neuroscience Methods; 95:127-132). Portions of the W-linked avian CHD (CHD-W) on females and its non W-linked homologue (CHD-Z) were amplified using polymerase chain reaction (PCR) with primers P2 and P8 (Griffiths et al., 1998, Mol Ecol; 7:1071-1075). […] The presence of the W chromosome was determined through the visualization of two bands while males were identified when only one band was produced.
Twenty-one target embryos were successfully sexed from control females, 16 from non-injected females, and 18 from CORT treated females. […] Differences in the number of females that produced males was analyzed among treatment groups by performing a logistic regression in StatView (SAS Institute, Cary, N.C. USA) using sex as the response variable (male=1). […]

Structure (SMILES): C[C@]12C[C@H](O)[C@H]3[C@@H](CCC4=CC(=O)CC[C@@]43C)[C@@H]1CC[C@@H]2C(=O)CO [corticosterone]
- males produced (primary sex ratio) (20 ug intraperitoneally five hours before ovulation, 3rd or 4th egg, control injected 61.9%, uninjected 37.5%): 72%
- male embryos produced compared to non-manipulated females (FIG. 5 legend) (20 ug, no significant difference from control injected females): produced significantly more male embryos
- Proportion male (eggs laid before treatment by the same treatment group (baseline)): 0.4375
- Proportion male (target eggs (Treatment), 20 ug): 0.72
